Measured values reported in PubChem BioAssay (NCI).
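Briefly, cells in 96-well plates were exposed to five compound concentrations for 48 h, and endpoints were estimated by linear interpolation. Abbreviation: GI50, concentration required for 50% inhibition of growth. Definition used: TGI = concentration required for complete inhibition of growth.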

Columns and labels:
Test in all cases: NCI anticancer screen, dose series, 48 h
[1] = test system: OVCAR-8 ovarian
[2] = test system: SF-539 CNS
[3] = test system: LOX IMVI melanoma
[4] = test system: 786-0 renal
[5] = test system: COLO 205 colon
[6] = test system: MDA-MB-435
[7] = test system: HOP-92 NSCLC
[8] = test system: NCI/ADR-RES ovarian
[9] = test system: HCT-15 colon
[10] = test system: HL-60(TB) leukemia
[11] = test system: NCI-H23 lung
[12] = test system: SNB-75 CNS
[13] = test system: UACC-62 melanoma
[14] = test system: SN12C renal
[15] = test system: MCF7 breast
[16] = test system: A498 renal
[17] = test system: OVCAR-3 ovarian
[18] = test system: SK-MEL-2 melanoma
[19] = test system: NCI-H522 lung
[20] = test system: M14 melanoma
[21] = test system: PC-3 prostate
[22] = test system: OVCAR-5 ovarian
[23] = test system: BT-549 breast
[24] = test system: NCI-H460 lung
[25] = test system: HCT-116 colon
[26] = test system: SK-MEL-5 melanoma
[27] = test system: HOP-62 NSCLC
[28] = test system: A549 NSCLC
[29] = test system: MOLT-4 leukemia
[30] = test system: RPMI-8226 leukemia
[31] = test system: K-562 leukemia
[32] = test system: HT29 colon
[33] = test system: SR leukemia
[34] = test system: CCRF-CEM leukemia
[35] = test system: SNB-19 CNS
[36] = test system: EKVX NSCLC
[37] = test system: DU-145 prostate
[38] = test system: SF-295 CNS
[39] = test system: SF-268 CNS
[40] = test system: HCC-2998 colon
[41] = test system: UO-31 renal
[42] = test system: IGROV1 ovarian
[43] = test system: UACC-257 melanoma
[44] = test system: TK-10 renal
[45] = test system: SK-MEL-28 melanoma
[46] = test system: RXF 393 renal
[47] = test system: SW-620 colon
[48] = test system: OVCAR-4 ovarian
[49] = test system: SK-OV-3 ovarian
[50] = test system: KM12 colon
[51] = test system: HS 578T breast
[52] = test system: U251 CNS
[53] = test system: NCI-H226 lung
[54] = test system: T-47D breast
[55] = test system: MALME-3M melanoma
[56] = test system: MDA-MB-231 breast

## c1ccc(-c2n(Cc3ccc4ccccc4n3)cc[n+]2Cc2ccc3ccccc3n2)cc1
[1]
  GI50: 3.25 µM
  TGI: 13.9 µM
[2]
  GI50: 2.92 µM
  TGI: 13.2 µM
[3]
  GI50: 2.35 µM
  TGI: 10.8 µM
[4]
  GI50: 5.45 µM
  TGI: 18.5 µM
[5]
  GI50: 1.41 µM
  TGI: 4.05 µM
[6]
  GI50: 1.8 µM
  TGI: 10.2 µM
[7]
  GI50: 0.269 µM
  TGI: 2.47 µM
[8]
  GI50: > 100 µM
  TGI: > 100 µM
[9]
  GI50: 20.2 µM
  TGI: 85.6 µM
[10]
  GI50: 0.399 µM
  TGI: 1.7 µM
[11]
  GI50: 1.23 µM
  TGI: 9.58 µM
[12]
  GI50: 1.33 µM
  TGI: 5.07 µM
[13]
  GI50: 0.675 µM
  TGI: 4.17 µM
[14]
  GI50: 2.25 µM
  TGI: 11.2 µM
[15]
  GI50: 1.87 µM
  TGI: 11.1 µM
[16]
  GI50: 1.81 µM
  TGI: 10.1 µM
[17]
  GI50: 1.05 µM
  TGI: 12.1 µM
[18]
  GI50: 1.96 µM
  TGI: 5.96 µM
[19]
  GI50: 1.92 µM
  TGI: 8.72 µM
[20]
  GI50: 2.35 µM
  TGI: 11.5 µM
[21]
  GI50: 2.64 µM
  TGI: 12.1 µM
[22]
  GI50: 5 µM
  TGI: 21.5 µM
[23]
  GI50: 1.65 µM
  TGI: 8.48 µM
[24]
  GI50: 2.49 µM
  TGI: 11.9 µM
[25]
  GI50: 2.06 µM
  TGI: 11.4 µM
[26]
  GI50: 0.542 µM
  TGI: 1.85 µM
[27]
  GI50: 5.66 µM
  TGI: 20.8 µM
[28]
  GI50: 13.5 µM
  TGI: 51.1 µM
[29]
  GI50: 4.24 µM
  TGI: 17.2 µM
[30]
  GI50: 0.269 µM
  TGI: 5.09 µM
[31]
  GI50: 0.754 µM
  TGI: 13.6 µM
[32]
  GI50: 2.39 µM
  TGI: 11.5 µM
[33]
  GI50: 1.29 µM
  TGI: 13.2 µM
[34]
  GI50: 2.9 µM
  TGI: 14.7 µM
[35]
  GI50: 2.18 µM
  TGI: 13.1 µM
[36]
  GI50: 2.91 µM
  TGI: 31.4 µM
[37]
  GI50: 4.29 µM
  TGI: 18.5 µM
[38]
  GI50: 3.22 µM
  TGI: 14.5 µM
[39]
  GI50: 3.32 µM
  TGI: 14.7 µM
[40]
  GI50: 1.93 µM
  TGI: 11.7 µM
[41]
  GI50: 12.6 µM
  TGI: 39.2 µM
[42]
  GI50: 1.87 µM
  TGI: 16.4 µM
[43]
  GI50: 1.01 µM
  TGI: 5.21 µM
[44]
  GI50: 5.38 µM
  TGI: 18.3 µM
[45]
  GI50: 0.983 µM
  TGI: 12.9 µM
[46]
  GI50: 2.8 µM
  TGI: 14 µM
[47]
  GI50: 2.65 µM
  TGI: 14.5 µM
[48]
  GI50: 0.709 µM
  TGI: 7.02 µM
[49]
  GI50: 3.39 µM
  TGI: 11.8 µM
[50]
  GI50: 1.76 µM
  TGI: 10.5 µM
[51]
  GI50: 2.76 µM
  TGI: 14.3 µM
[52]
  GI50: 2.66 µM
  TGI: 12.4 µM
[53]
  GI50: 1.76 µM
  TGI: 9.72 µM
[54]
  GI50: 0.498 µM
  TGI: 7.77 µM
[55]
  GI50: 1.57 µM
  TGI: 8.02 µM
[56]
  GI50: 1.69 µM
  TGI: 8.58 µM
